Assay results as given in ChEMBL document CHEMBL1201862, “PubChem BioAssay data set” (2004).
Calls of active or inactive are those of the source.

What was measured:
[1] = molecular target: T1, Ubiquitin-conjugating enzyme E2 N (Homo sapiens, UniProt P61088); type: functional;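 also: Dose-response confirmation in a TR-FRET assay detecting UBC13-driven polyubiquitin chain formation, inhibition measured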
T1 sequence (P61088 whole entry): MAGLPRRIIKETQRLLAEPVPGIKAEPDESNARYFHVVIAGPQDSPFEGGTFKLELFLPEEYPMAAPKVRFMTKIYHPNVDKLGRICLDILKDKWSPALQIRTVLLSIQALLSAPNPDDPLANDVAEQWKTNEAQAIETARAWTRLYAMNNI

Cytochrome P450 3A4 = Cytochrome P450 3A4 (Homo sapiens, UniProt P08684); conditions: Potency;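 also: confirmatory qHTS run detecting inhibitors and substrates of CYP3A4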
[2] = molecular target: T2, Voltage-gated N-type calcium channel alpha-1B subunit/Amyloid beta A4 precursor protein-binding family A member 1 (Homo sapiens, UniProt Q00975+Q02410); type: protein assay
[3] = molecular target: T2, Voltage-gated N-type calcium channel alpha-1B subunit/Amyloid beta A4 precursor protein-binding family A member 1; type: protein assay; remark: listed apart in the source
[4] = molecular target: Glyceraldehyde-3-phosphate dehydrogenase (Homo sapiens, UniProt P04406)
[5] = viability of uninfected HEp-2 cells – cell-based, HTS, cytotoxicity control for RSV inhibitor project, dose response (AID 2410); type: functional; conditions: human respiratory syncytial virus
Leucine aminopeptidase = molecular target: T3, Leucine aminopeptidase (Plasmodium falciparum 3D7, UniProt Q8IL11); experiment: P. falciparum M17LAP inhibitors, primary screen, biochemical, fluorogenic H-Leu-NHMec substrate, 1536-well (AID 1619); type: functional
T3 sequence (Q8IL11 whole entry): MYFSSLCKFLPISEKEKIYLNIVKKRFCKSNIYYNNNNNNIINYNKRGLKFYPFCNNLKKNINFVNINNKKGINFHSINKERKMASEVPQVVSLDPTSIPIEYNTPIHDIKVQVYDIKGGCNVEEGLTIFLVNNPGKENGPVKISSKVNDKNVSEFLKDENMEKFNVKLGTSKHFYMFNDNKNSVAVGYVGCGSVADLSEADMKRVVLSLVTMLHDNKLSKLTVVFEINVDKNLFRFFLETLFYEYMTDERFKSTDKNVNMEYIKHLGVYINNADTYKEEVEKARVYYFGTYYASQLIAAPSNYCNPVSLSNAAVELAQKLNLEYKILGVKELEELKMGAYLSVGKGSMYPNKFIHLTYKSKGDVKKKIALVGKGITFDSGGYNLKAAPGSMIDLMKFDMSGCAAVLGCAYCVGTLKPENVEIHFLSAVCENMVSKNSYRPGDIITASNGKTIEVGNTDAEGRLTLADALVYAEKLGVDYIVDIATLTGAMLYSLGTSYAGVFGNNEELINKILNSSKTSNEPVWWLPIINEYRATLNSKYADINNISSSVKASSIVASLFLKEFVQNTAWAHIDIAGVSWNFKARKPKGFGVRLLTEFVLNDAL

Aminopeptidase N = molecular target: T4, Aminopeptidase N (Plasmodium falciparum FcB1/Columbia, UniProt O96935); experiment: malaria alanyl aminopeptidase activity blockers – biochemical, fluorogenic H-Leu-NHMec substrate, 1536-well (AID 1445); parameters: species or system Plasmodium falciparum 3D7, 3D7
T4 sequence (O96935 whole entry): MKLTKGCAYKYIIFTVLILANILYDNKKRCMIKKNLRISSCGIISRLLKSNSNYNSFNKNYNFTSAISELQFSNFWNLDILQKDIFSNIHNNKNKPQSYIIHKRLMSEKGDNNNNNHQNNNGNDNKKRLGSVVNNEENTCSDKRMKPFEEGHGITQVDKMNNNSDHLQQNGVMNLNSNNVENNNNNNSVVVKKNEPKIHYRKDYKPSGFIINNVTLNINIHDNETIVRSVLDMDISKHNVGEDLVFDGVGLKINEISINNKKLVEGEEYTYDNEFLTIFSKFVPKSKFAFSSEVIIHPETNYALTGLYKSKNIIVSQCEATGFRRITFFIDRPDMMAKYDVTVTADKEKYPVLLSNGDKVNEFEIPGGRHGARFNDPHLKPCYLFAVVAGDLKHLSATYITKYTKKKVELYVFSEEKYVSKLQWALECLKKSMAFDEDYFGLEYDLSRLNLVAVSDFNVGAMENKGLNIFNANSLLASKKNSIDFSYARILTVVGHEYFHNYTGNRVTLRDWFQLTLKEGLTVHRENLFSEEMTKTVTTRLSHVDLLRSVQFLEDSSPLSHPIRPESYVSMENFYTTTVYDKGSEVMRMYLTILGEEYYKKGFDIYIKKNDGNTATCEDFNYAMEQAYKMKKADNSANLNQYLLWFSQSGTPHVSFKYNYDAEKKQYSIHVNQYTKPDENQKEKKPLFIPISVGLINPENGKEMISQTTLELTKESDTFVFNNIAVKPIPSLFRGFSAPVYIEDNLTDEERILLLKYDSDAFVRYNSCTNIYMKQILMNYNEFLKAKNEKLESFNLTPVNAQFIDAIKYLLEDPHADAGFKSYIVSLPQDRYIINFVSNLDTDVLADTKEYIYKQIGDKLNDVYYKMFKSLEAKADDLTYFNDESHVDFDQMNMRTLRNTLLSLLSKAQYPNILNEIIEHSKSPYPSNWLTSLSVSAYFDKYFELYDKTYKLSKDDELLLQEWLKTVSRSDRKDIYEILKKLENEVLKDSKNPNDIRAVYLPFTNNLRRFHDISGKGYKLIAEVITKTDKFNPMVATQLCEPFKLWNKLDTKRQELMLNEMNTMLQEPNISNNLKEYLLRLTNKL

HEK293 [6] = experiment: cells; type: functional, cell-based; conditions: Homo sapiens
HEK293 [7] = experiment: cells; type: functional, cell-based; conditions: Homo sapiens; remark: listed apart in the source
[8] = molecular target: Nucleotide-binding oligomerization domain-containing protein 2 (Homo sapiens, UniProt Q9HC29); experiment: inhibition of NOD2-driven NF-kB reporter – cell-based, luminescence, uHTS, HEK293 (AID 1566); type: functional
HEK293 [9] = experiment: NOD2 signaling inhibitors in MDP-stimulated cells, cell-based, uHTS, luminescence (AID 2001); type: functional; conditions: Homo sapiens
HEK293 [10] = experiment: inhibition of NOD1-driven NF-kB reporter – cell-based, luminescence, uHTS, primary screen (AID 1578); type: functional; conditions: Homo sapiens
HEK293 [11] = experiment: cells; type: functional, cell-based; conditions: Homo sapiens; remark: listed apart in the source
Vero = experiment: cells; type: functional; conditions: Chlorocebus sabaeus
[12] = molecular target: T5, Replicative DNA helicase DnaB (Mycobacterium tuberculosis, UniProt P9WMR3); experiment: DnaB intein splicing inhibitors, dose response, biochemical, cell-free fluorescence (AID 449749); type: functional
T5 sequence (P9WMR3 whole entry): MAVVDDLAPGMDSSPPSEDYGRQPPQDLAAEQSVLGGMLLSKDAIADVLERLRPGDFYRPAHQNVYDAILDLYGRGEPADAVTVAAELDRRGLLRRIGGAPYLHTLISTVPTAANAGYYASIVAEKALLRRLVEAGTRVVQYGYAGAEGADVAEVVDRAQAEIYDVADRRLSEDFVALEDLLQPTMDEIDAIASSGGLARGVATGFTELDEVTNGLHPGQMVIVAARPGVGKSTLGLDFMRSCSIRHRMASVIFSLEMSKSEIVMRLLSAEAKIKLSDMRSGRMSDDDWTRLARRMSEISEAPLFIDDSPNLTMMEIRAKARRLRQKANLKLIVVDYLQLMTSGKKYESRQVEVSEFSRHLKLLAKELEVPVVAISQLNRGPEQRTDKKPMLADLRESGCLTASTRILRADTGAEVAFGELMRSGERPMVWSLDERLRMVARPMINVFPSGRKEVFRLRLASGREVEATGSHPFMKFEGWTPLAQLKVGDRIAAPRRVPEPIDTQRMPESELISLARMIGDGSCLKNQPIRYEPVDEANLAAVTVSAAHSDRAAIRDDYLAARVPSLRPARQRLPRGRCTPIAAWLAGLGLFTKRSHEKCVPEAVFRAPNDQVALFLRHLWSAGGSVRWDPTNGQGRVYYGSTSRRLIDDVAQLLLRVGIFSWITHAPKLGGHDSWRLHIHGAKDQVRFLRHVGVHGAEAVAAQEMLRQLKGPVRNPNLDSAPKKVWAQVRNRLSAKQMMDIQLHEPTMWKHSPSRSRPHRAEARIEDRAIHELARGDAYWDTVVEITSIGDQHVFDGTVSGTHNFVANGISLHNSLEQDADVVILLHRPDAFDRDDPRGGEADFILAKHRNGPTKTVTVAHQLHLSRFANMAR

Protein RecA = molecular target: T6, Protein RecA (Mycobacterium tuberculosis, UniProt P9WHJ3); experiment: Fluorescence Cell-Free Homogeneous Dose Retest to Identify Inhibitors of RecA-Intein Splicing Activity. [Related pubchem assays (depositor defined):AID2097, AID2223, AID489010, AID492950]; type: functional
T6 sequence (P9WHJ3 whole entry): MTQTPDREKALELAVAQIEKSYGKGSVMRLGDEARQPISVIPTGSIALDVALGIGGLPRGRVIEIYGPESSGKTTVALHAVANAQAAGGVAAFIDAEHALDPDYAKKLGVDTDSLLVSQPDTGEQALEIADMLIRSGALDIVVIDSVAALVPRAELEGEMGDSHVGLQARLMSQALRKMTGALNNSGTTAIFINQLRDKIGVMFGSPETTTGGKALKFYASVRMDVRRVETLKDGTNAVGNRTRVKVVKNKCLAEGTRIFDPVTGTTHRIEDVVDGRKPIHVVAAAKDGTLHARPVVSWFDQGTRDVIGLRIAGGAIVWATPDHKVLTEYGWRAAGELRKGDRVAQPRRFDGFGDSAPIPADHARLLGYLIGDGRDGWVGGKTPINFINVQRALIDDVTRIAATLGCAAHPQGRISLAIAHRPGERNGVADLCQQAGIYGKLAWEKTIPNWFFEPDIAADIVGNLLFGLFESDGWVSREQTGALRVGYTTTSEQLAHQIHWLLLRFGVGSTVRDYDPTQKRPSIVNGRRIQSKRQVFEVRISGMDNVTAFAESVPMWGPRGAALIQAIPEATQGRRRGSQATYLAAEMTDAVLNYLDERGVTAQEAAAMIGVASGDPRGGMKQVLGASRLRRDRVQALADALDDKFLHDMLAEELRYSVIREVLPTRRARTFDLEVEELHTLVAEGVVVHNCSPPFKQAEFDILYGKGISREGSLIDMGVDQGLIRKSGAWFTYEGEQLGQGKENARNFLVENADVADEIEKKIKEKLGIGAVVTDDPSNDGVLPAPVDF

Chain of Cytochrome P450 3A4 (P08684 whole entry): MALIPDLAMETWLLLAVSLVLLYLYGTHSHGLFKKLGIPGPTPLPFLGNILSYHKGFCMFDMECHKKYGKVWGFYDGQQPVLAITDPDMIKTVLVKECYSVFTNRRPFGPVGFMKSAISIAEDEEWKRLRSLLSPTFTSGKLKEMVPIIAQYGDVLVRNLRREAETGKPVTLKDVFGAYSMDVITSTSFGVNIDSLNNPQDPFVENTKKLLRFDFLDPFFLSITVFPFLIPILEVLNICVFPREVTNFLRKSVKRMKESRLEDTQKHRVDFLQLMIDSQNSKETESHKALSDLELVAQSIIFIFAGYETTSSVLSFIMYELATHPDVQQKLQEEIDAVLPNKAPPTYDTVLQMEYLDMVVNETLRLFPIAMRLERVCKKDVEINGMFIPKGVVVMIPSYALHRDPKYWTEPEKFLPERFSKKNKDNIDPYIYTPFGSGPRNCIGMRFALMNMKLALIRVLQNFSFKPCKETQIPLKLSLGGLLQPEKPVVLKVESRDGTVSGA
T2 sequence (Q00975 whole entry): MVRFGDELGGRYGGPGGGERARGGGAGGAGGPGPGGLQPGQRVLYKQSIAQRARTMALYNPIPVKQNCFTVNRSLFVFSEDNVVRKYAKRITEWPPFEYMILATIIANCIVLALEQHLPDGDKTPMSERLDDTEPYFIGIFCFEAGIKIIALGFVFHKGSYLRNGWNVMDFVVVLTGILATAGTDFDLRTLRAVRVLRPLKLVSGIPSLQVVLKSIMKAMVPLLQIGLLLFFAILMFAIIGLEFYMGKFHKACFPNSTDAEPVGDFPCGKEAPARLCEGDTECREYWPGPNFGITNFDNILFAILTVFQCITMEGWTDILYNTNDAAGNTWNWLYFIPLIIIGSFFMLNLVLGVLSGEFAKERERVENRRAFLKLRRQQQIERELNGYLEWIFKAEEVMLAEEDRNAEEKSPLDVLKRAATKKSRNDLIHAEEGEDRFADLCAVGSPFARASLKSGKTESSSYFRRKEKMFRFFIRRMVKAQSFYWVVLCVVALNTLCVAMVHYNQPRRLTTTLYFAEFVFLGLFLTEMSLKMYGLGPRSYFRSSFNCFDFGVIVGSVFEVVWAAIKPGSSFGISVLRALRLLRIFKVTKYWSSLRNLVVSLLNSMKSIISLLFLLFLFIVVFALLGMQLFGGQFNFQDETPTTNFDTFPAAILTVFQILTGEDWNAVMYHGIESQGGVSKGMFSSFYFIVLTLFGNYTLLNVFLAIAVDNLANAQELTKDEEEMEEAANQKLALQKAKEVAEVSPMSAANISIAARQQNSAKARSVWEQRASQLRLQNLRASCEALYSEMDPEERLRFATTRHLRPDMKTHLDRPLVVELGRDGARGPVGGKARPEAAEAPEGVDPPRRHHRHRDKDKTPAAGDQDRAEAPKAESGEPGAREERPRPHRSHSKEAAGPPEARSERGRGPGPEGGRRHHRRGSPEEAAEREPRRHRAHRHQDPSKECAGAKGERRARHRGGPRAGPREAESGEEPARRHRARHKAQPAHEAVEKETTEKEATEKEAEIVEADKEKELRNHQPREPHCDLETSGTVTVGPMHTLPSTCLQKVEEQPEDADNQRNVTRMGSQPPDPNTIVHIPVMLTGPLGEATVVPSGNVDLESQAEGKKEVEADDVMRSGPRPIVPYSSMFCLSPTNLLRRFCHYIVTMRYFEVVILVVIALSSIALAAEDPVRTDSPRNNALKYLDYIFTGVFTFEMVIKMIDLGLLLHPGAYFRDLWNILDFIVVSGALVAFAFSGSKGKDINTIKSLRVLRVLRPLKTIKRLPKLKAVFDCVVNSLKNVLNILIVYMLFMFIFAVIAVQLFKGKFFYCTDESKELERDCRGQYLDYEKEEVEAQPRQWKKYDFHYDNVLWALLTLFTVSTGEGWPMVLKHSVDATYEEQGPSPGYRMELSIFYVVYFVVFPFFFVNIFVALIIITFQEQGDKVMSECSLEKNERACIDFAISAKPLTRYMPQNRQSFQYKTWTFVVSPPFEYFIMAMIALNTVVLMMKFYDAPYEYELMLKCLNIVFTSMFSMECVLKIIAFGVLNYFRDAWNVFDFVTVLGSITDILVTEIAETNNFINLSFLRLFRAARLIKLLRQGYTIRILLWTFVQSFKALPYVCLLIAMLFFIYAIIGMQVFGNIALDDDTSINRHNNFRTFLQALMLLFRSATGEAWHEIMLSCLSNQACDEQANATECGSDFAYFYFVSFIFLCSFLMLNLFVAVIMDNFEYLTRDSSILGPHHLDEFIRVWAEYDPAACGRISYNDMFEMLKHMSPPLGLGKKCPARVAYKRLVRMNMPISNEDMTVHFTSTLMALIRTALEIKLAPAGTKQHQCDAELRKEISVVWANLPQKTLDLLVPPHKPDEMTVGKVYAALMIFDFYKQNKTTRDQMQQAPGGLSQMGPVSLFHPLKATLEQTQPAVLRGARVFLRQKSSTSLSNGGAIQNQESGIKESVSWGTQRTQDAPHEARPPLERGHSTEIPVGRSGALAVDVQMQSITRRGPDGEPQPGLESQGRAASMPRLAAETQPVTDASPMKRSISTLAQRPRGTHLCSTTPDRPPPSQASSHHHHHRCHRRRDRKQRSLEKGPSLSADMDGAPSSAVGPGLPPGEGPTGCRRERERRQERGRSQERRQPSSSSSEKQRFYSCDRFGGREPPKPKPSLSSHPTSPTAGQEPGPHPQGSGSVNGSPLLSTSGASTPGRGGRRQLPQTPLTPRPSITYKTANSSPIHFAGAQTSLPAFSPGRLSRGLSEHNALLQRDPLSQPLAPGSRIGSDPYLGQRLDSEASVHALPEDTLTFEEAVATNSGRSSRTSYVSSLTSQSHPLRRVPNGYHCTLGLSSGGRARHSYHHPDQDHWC
T2 sequence (Q02410 whole entry): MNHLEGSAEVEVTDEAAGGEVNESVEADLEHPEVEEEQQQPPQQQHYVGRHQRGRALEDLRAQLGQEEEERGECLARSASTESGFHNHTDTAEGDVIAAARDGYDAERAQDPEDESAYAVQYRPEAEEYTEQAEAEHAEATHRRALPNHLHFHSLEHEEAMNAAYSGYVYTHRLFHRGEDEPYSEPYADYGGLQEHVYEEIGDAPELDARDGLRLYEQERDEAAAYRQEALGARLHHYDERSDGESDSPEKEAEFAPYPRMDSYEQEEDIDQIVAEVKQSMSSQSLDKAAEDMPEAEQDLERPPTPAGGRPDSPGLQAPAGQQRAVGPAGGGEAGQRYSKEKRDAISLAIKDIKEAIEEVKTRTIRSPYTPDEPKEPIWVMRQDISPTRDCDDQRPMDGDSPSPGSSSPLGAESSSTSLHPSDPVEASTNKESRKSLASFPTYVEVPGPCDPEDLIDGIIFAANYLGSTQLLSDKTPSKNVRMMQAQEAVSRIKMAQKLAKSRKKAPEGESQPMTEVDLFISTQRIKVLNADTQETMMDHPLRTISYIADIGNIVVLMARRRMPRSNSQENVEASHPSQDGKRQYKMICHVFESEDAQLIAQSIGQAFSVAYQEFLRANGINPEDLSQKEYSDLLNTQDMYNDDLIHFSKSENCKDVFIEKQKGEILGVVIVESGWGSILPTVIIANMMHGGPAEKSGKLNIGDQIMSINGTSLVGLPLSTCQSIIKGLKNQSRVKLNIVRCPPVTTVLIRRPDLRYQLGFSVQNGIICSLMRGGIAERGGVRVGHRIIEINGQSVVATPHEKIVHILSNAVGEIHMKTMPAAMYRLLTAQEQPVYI
Chain of Glyceraldehyde-3-phosphate dehydrogenase (P04406 whole entry): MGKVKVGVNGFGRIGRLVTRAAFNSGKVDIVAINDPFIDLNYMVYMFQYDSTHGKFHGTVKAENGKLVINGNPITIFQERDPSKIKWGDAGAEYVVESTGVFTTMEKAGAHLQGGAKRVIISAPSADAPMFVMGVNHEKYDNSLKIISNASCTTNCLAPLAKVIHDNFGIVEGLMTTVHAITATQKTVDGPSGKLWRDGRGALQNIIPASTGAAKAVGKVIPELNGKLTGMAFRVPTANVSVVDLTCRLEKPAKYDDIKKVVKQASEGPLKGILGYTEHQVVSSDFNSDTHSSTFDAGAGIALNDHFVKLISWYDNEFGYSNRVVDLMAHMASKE
Chain of Nucleotide-binding oligomerization domain-containing protein 2 (Q9HC29 whole entry, the tested form may be a part): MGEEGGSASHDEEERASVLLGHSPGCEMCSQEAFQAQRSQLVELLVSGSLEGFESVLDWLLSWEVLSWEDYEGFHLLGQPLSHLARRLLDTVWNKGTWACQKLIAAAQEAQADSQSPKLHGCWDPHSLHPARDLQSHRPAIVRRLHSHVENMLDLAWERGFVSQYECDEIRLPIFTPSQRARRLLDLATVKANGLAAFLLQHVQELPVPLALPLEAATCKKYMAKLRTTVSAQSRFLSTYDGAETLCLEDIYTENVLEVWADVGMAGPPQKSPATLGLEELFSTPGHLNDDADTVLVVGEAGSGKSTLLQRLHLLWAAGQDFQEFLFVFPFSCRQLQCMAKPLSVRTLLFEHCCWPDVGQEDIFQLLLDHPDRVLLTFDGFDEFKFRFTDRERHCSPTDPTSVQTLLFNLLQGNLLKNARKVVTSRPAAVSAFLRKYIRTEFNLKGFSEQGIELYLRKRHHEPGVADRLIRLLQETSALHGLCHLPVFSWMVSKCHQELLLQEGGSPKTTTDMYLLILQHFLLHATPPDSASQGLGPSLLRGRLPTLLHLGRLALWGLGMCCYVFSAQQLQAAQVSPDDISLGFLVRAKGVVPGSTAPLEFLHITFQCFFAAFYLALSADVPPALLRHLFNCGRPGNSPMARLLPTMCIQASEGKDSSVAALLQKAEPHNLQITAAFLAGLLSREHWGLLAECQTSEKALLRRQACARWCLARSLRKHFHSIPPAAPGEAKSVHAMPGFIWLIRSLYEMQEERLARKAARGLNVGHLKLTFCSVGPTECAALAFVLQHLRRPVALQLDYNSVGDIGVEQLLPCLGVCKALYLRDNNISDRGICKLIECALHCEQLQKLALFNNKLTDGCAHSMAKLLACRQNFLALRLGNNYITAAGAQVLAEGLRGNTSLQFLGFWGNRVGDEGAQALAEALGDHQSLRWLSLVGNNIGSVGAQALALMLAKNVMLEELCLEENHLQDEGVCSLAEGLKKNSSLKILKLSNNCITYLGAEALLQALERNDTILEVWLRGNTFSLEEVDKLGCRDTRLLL

Cc1cc(C)cc(N(C(=O)c2snc(C(N)=O)c2N)C(C(=O)NCC2CCCO2)c2cccs2)c1 (configuration not stated)
IC50 [1]: > 20 µM (inactive)

Cc1cccc2c3c(ccc12)C1=C(C(=O)C3=O)C(C)CO1 (configuration not stated)
AC50 (Cytochrome P450 3A4): 12.6 µM (inconclusive)

O=c1cc(CO)oc(C(Nc2cccc(C(F)(F)F)c2)c2ccccn2)c1O (configuration not stated)
IC50 [2]: 1.09 µM (active)
IC50 [3]: 8.71 µM (active)
IC50 [1]: > 20 µM (inactive)

O=C1C(Cl)=C(N2CCN(CCO)CC2)C(=O)N1c1ccc(C(F)(F)F)cc1
IC50 [4]: > 50 µM (inconclusive)

CC1(C)C(O)CC[C@]2(C)C1CC[C@@]1(C)C2C(=O)C=C2[C@@H]3C[C@@](C)(C(=O)O)CC[C@@]3(C)CCC21C (some centres not stated)
AC50 (Cytochrome P450 3A4): 39.8 µM (inconclusive)

COc1ccccc1NC(=O)c1cc(S(=O)(=O)NCc2ccccc2)ccc1F
IC50 [1]: > 20 µM (inactive)

COC(=O)c1cc(Nc2cc(C)c3c(O)cccc3n2)cc(C(=O)OC)c1
IC50 (cells): > 50 µM (active)
CC50 [5]: 44.4 µM (active)

COc1ccc(C(=O)CC(=O)c2c(O)cc(OC)cc2OC)cc1
AC50 (Cytochrome P450 3A4): 3.98 µM (inconclusive)

COc1ccc(-n2c(C)cc(/C=C3\C(=N)N4N=C(CC(=O)N5CCOCC5)SC4=NC3=O)c2C)c(OC)c1
IC50 (cells): 11.7 µM (active)
CC50 [5]: 11.1 µM (active)

COc1ccccc1CNC(=O)C1CCCN1S(=O)(=O)c1cccc2cccnc12 (configuration not stated)
IC50 (cells): 18.6 µM (active)

C=CCSc1nnc(NC(=O)c2nc(SCC)ncc2Cl)s1
IC50 (Leucine aminopeptidase): 10.8 µM (active)
IC50 (Aminopeptidase N): 94.3 µM (active)

Cc1c(-c2ccc(OCc3ccccc3)cc2)nc2ccccc2c1C(=O)O
IC50 (cells): 24.7 µM (active)
CC50 [5]: 42.6 µM (active)

CCn1c(SCC(=O)Nc2nc(-c3ccccc3)cs2)nnc1-c1ccccc1
IC50 (HEK293 [6]): 11.3 µM (active)
IC50 (HEK293 [7]): 6.13 µM (active)
EC50 [8]: 7.91 µM (active)
IC50 (HEK293 [9]): 5.74 µM (active)
EC50 (HEK293 [10]): 7.28 µM (active)
IC50 (HEK293 [11]): > 20 µM (inactive)

Nc1nonc1-c1nc2ccccc2n1CC(=O)N/N=C/c1ccc(-c2ccccc2C(=O)O)o1
IC50 (Leucine aminopeptidase): 73.8 µM (active)
IC50 (Aminopeptidase N): 82.7 µM (active)

CCOC(=O)C1=C(COCCN)N=C(C)/C(=C(/O)OC)C1c1ccccc1Cl (configuration not stated)
CC50 (Vero): > 25 µM (active)
IC50 [1]: > 20 µM (inactive)

C/C(CC(=O)Nc1cc(C)ccn1)=N\NC(=O)COc1cccc(C)c1
AC50 [12]: 2.37 µM (active)
IC50 (Leucine aminopeptidase): 90.2 µM (active)
EC50 (Protein RecA): 1.54 µM (active)

CCN(CC)C(=O)c1cc(-c2ccc(Cl)cc2Cl)n[nH]1
IC50 [4]: > 10 µM (inconclusive)
